Read-outs that look alike come from different tables or passages of the source. Non-standard residues stand in square brackets, D forms with d. Residues, ends and D or L forms follow the SMILES beside them. dBip = N[C@H](Cc1ccc(-c2ccccc2)cc1)C(=O)O; Oic = O=C(O)[C@@H]1C[C@@H]2CCCC[C@@H]2N1; Phe(4-Cl) = N[C@@H](Cc1ccc(Cl)cc1)C(=O)O; Phe(4-I) = N[C@@H](Cc1ccc(I)cc1)C(=O)O; 2Nal = N[C@@H](Cc1ccc2ccccc2c1)C(=O)O; NMehArg = CN[C@@H](CCCCNC(=N)N)C(=O)O; NMeR = CN[C@@H](CCCNC(=N)N)C(=O)O; hArg = N=C(N)NCCCC[C@H](N)C(=O)O; Cha = N[C@@H](CC1CCCCC1)C(=O)O; αMeP = C[C@@]1(C(=O)O)CCCN1; Nle = CCCC[C@H](N)C(=O)O; Orn = NCCC[C@H](N)C(=O)O; Aib = CC(C)(N)C(=O)O
Molecular target: T1, human APJ receptor (Homo sapiens, UniProt P35414)
T1 construct: expressed in transfected cells
T1 sequence (P35414 1-380): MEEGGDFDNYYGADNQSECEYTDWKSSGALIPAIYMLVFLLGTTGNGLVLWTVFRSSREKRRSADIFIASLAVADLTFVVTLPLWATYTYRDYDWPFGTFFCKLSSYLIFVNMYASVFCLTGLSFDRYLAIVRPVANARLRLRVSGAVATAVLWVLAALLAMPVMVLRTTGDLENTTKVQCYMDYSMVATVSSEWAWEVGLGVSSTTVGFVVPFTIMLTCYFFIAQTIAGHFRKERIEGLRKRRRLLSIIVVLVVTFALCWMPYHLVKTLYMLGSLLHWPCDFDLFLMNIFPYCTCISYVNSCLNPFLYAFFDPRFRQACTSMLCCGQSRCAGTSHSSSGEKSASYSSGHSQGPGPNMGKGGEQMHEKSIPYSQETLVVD
Test: [35S] GTPγS assay, human APJ receptor
Type: biochemical
Procedure: The membranes were incubated with modified peptides in the assay buffer. […] Bound [^35S] GTPγS was separated from free radiolabel by filtration. The filter bound radioactivity was determined by liquid scintillation counting.

SMILES	EC50 [nM]	EC50 (human APJ receptor) [nM]
CCCC[C@H](NC(=O)[C@@H]1C[C@@H]2CCCC[C@@H]2N1C(=O)CNC(=O)[C@H](CCCCN)NC(=O)[C@H](Cc1c[nH]cn1)NC(=O)[C@H](CO)NC(=O)[C@H](CC1CCCCC1)NC(=O)[C@H](CCCCNC(=N)N)NC(=O)[C@@H]1CCCN1C(=O)[C@H](CCCNC(=N)N)NC(=O)[C@H](CCC(N)=O)NC(=O)[C@H](CCCNC(=N)N)NC(C)=O)C(=O)N1CCC[C@H]1C(=O)N[C@@H](Cc1ccc(Cl)cc1)C(=O)O [compound 17] (Ac-RQRP[hArg][Cha]SHKG[Oic][Nle]P[Phe(4-Cl)]-OH)	0.171	–
CCCC[C@H](NC(=O)[C@@H]1CCCN1C(=O)CNC(=O)[C@H](CCCCN)NC(=O)[C@H](Cc1c[nH]cn1)NC(=O)[C@H](CO)NC(=O)[C@H](CC1CCCCC1)NC(=O)[C@H](CCCCNC(=N)N)NC(=O)[C@@H]1CCCN1C(=O)[C@H](CCCNC(=N)N)NC(=O)[C@H](CCC(N)=O)NC(=O)[C@H](CCCCNC(=N)N)NC(=O)[C@H](CCCCNC(=N)N)NC(=O)[C@H](Cc1ccccc1)NC(=O)[C@H](CCCN)NC(C)=O)C(=O)N[C@@H](Cc1ccc2ccccc2c1)C(=O)O [compound 49] (Ac-[Orn]F[hArg][hArg]QRP[hArg][Cha]SHKGP[Nle][2Nal]-OH)	0.159	–
CCCC[C@H](NC(=O)[C@@H]1C[C@@H]2CCCC[C@@H]2N1C(=O)CNC(=O)[C@H](CCCCN)NC(=O)[C@H](Cc1c[nH]cn1)NC(=O)[C@H](CO)NC(=O)[C@H](CC1CCCCC1)NC(=O)[C@H](CCCNC(=N)N)N(C)C(=O)[C@@H]1CCCN1C(=O)[C@H](CCCCNC(=N)N)NC(=O)[C@H](CCC(N)=O)NC(=O)[C@H](CCCCNC(=N)N)NC(=O)[C@H](CCCCNC(=N)N)NC(C)=O)C(=O)N1CCC[C@H]1C(=O)N[C@@H](Cc1ccc(Cl)cc1)C(=O)O [compound 56] (Ac-[hArg][hArg]Q[hArg]P[NMeR][Cha]SHKG[Oic][Nle]P[Phe(4-Cl)]-OH)	0.176	–

Results, then the compound that gave them:

EC50 [nM]	EC50 (human APJ receptor) [nM]	SMILES
1.52	–	CC(=O)N[C@@H](CCCCNC(=N)N)C(=O)N[C@@H](CCCCNC(=N)N)C(=O)N[C@@H](CCC(N)=O)C(=O)N[C@H](CCCNC(=N)N)C(=O)N1CCC[C@H]1C(=O)N(C)[C@@H](CCCNC(=N)N)C(=O)N[C@@H](CC1CCCCC1)C(=O)N[C@@H](CO)C(=O)N[C@@H](Cc1c[nH]cn1)C(=O)N[C@@H](CCCCN)C(=O)NCC(=O)N1[C@H](C(=O)N[C@@H](Cc2ccc(I)cc2)C(=O)N2CCC[C@H]2C(=O)N[C@H](Cc2ccc(-c3ccccc3)cc2)C(=O)O)C[C@@H]2CCCC[C@@H]21 [compound 22] (Ac-[hArg][hArg]Q[dR]P[NMeR][Cha]SHKG[Oic][Phe(4-I)]P[dBip]-OH)
–	1.81	CCCC[C@H](NC(=O)[C@@H]1CCCN1C(=O)CNC(=O)[C@H](CCCCN)NC(=O)[C@H](Cc1c[nH]cn1)NC(=O)[C@H](CO)NC(=O)[C@H](CC(C)C)NC(=O)[C@H](CCCCNC(=N)N)N(C)C(=O)[C@H](CCCNC(=N)N)NC(=O)[C@H](CCC(N)=O)NC(C)=O)C(=O)N1CCC[C@H]1C(=O)N[C@@H](Cc1ccc(Cl)cc1)C(=O)O [compound 73] (Ac-QR[NMehArg]LSHKGP[Nle]P[Phe(4-Cl)]-OH)
–	0.229	CCCC[C@H](NC(=O)[C@]1(C)CCCN1C(=O)CNC(=O)[C@H](CCCCN)NC(=O)[C@H](Cc1c[nH]cn1)NC(=O)[C@H](CO)NC(=O)[C@H](CC1CCCCC1)NC(=O)[C@H](CCCNC(=N)N)N(C)C(=O)[C@@H]1CCCN1C(=O)[C@H](CCCNC(=N)N)NC(=O)[C@@H](CCC(N)=O)NC(C)=O)C(=O)NC(C)(C)C(=O)N[C@@H](Cc1ccc(Cl)cc1)C(=O)O [compound 93] (Ac-[dQ]RP[NMeR][Cha]SHKG[αMeP][Nle][Aib][Phe(4-Cl)]-OH)
